From patent US10857167B2, “Use of oligosaccharide compositions to enhance weight gain” (Children's Hospital Medical Center, priority 2015, dated 2020)
“Also recorded” adds a separate entry of the source.

How the values were obtained:
[1] = test system: TFF3, MUC2, DEFA5, ZO-1, HSPA1A, Reg3b, Reg3g; assay: Expression of genes relative to β-Actin in pre-operative and post-ICR mice; assay type: in vivo, mouse; conditions: post-ICR with 2′ FL supplementation
[2] = test system: environmental enteropathy growth model; assay: Environmental enteropathy growth model (control diet or regional-based diet); assay type: in vivo, mouse; conditions: 2.5 g/L in drinking water from 4 weeks of age
Excerpt: FIG. 41 is a scheme showing a 2′-FL experiment: Environmental Enteropathy. All dams were placed on Regional-based Diet when their pups were 10 days old. At weaning (3 weeks of age), pups were placed on either control diet (CD) or continued on regional-based diet (RBD), which is a malnutrition diet lacking nutrients. At 4 weeks of age, the pups were given either plain drinking water or 2-FL (2.5 g/L) in sipper sacs. Sipper sacs were changed and weighed every other day. Mice and food were weighed twice a week. Stool was collected at weaning, 6 weeks of age, and 8 weeks of age. Mice were sacrificed at 8 weeks of age. To further support the findings of the beneficial effect of 2′ FL supplementation on infant growth, another experiment as outlined in FIG. 41 was performed. All dams were placed on Regional-based Diet when their pups were 10 days old. At weaning (3 wks of age), pups were placed on either control diet (CD) or continued on regional-based diet (RBD), which is a malnutrition diet lacking nutrients. At 4 wks of age, the pups were given either plain drinking water or 2-FL (2.5 g/L) in sipper sacs. Sipper sacs were changed and weighed every other day. Mice and food were weighed twice a week. Stool was collected at weaning, 6 weeks of age, and 8 weeks of age. Mice were sacrificed at 8 weeks of age.

[3] = test system: mouse model of adaptation following extensive ileocecal resection (ICR); assay: Weight change after ileocecal resection (ICR) in mice; assay type: in vivo; conditions: for weight / weight gain compared to control after ICR: 56 day experiment, on and beyond postoperative day 21
Excerpt: A mouse model of adaptation following intestinal resection was previously reported. Under the aid of an operating microscope and utilizing sedation with 2% isoflurane, a midline incision was made […] and the bowel was eviscerated (FIG. 7). […] Intestinal continuity was restored by end-to-end anastomosis and the abdomen of mice was closed (FIG. 9). The mice received one dose of intraperitoneal broad-spectrum antibiotics. In particular, C57 Black 6 mice of 8 to 10 weeks in age were subjected to ileocecal resection (FIG. 11). 5 animals were carried to post-operative day 56 in the usual fashion. Seven animals were carried to the same time point but supplemented with 2'Fucosyllactose. 2'FL was added to both liquid diet (LD) and standard diet (SD) with water to achieve a final concentration of 21⁄2 grams per liter. All animals were weighed once daily during the first week then once every other day thereafter. Male C57BL/6 mice (Jackson Labs, Me.) of 8 to 10 weeks of age were weighed and started on an exclusive polymeric formula diet one day prior to experiment start (Jevity 1 Cal, Abbott Nutrition, Columbus, Ohio). All mice were administered one dose of intraperitoneal Zosyn (at approximately 100 mg/kg) on experiment day 0. All animals were grouped by operation status and subgrouped into treatment and control arms (Table 4). Liquid diet was refreshed and weights obtained daily for 7 days then all mice were transitioned to a standard chow diet with access to water. Animals in both groups were weighed every other day and taken to 21 or 56 days for experiment completion. All animal studies were approved by the Cincinnati Children's Hospital Medical Center Institutional Animal Care and Use Committee. Non-operated animals were maintained as described above. Operated animals were taken to the operating room on experimental day 0 and underwent ileocecal resection (ICR) as previously described in […] et al. (2007) American journal of physiology Gastrointestinal and liver physiology 293: G1013-1022. Under the aid of an operating microscope and utilizing sedation with 2% isoflurane, a midline incision was made and the bowel eviscerated. The ileocecal junction was identified and approximately 12 cm of ileum and cecum were resected. Resected small bowel tissue and luminal contents were collected as described below. Intestinal continuity was restored by end-to-end anastomosis and the abdomen was closed (FIG. 28). ICR mice were then assigned to control or treatment subgroups, were administered analgesia with subcutaneous buprenorphine (0.05-0.1 mg/kg) and recovered overnight in a standard neonatal incubator warmed to approximately 38 degrees Celsius. Control (non-operated) animals were maintained as described above. Beginning on experiment day 0, treatment animals were supplemented with 2'-Fucosyllactose. 2'-FL was added to formula then water to a final concentration of 2.5 grams per liter. Formula was refreshed daily and water refreshed every other day. […] Intestinal length was compared across groups using the Wilcoxon rank-sum test as values were not normally distributed. Histologic count data was averaged per mouse across two samples and compared by the Wilcoxon rank-sum test. Weight data was analyzed using Stata version 13.0 (StataCorp LP, TX). Remaining morphometric and histologic data were analyzed using GraphPad Prism version 5 (GraphPad Software Inc, CA).

## C[C@@H]1O[C@@H](O[C@H]2[C@H](O[C@H]3[C@H](O)[C@@H](O)C(O)O[C@@H]3CO)O[C@H](CO)[C@H](O)[C@@H]2O)[C@@H](O)[C@H](O)[C@@H]1O (stereo partly drawn) [2′-FL, 2′-fucosyllactose]
[1]
  expression of genes TFF3, DEFA5, HSPA1A, Reg3b, and Reg3g relative to β-Actin: increased expression
[2]; control diet
  growth (weight change over time): increased growth
[2]; regional based diet (malnutrition diet)
  growth (weight change over time): did not increase growth
[3]; 2′-FL supplemented ICR subgroup
  time to return to preoperative weight after ICR: 3 to 4 weeks
[3]; 2′-FL supplemented ICR subgroup, 2.5 grams per liter in formula then water
  body weight lost during the first postoperative week: approximately 10%
[3]
  weight / weight gain compared to control after ICR: improved growth; also recorded: increased weight gain; also recorded: gained more weight
[3]; listed as 2′FL
  weight / weight gain compared to control after ICR: improved late-term weight-gain profile
[3]; animals taken to harvest at postoperative day 21
  weight difference between control and 2′-FL supplemented subgroups: no significant weight difference
[3]; at 56 days after ICR, 2′-FL supplemented ICR subgroup
  percent of preoperative body weight achieved: 110%
